Laboratory results reported in US20250011272A1, “LONG-CHAIN COMPOUND THAT ACTS ON ACLY, PREPARATION METHOD THEREFOR AND USE THEREOF” (SHANGHAIINSTITUTE OF MATERIA MEDICA, CHINESE ACADEMY OF …, priority 2021, published 2025).
Read-outs that look alike come from different tables or passages of the source.

Legend:
Human ACLY = Human ACLY (Homo sapiens (Human), UniProt P53396); assay: ACLY enzyme activity test (ADP-Glo luminescence); type: biochemical; details: 37° C., 30 minutes
Description: • Instrument: Envision (PerkinElmer, USA) • Materials: Acl—human ACLY/acly/ATP citrate lyase protein (His tag) was purchased from Sino Biological; kinase assay kit ADP-GLO (promega #V9102).
Experimental principle: In this experiment, the ATP-dependent citrate lyase ACL catalyzes the conversion of citrate to acetyl coenzyme A, which in turn produces malonyl coenzyme A, a precursor molecule for fatty acid synthesis, and this reaction is accompanied by ATP depletion, so the change in ATP can be detected using the ADP-Glo Kinase Assay (#V9102) to indirectly reflect the inhibitory effect of the compound on the enzymatic activity of ACL. This kinase detection kit can quantitatively determine the amount of ADP catalyzed by ACLY enzyme activity. (First, the compound, the enzyme and the substrate are incubated at 37 degrees for half an hour, ADP-Glo& #V9102; reagent is added and incubated for half an hour to terminate the reaction and consume the remaining ATP; then the kinase detection reagent is added (which converts the ADP to ATP while also detecting the newly synthesized ATP using the coupled […] reaction) and incubated for half an hour. The value is read by using Envision.
Experimental method: ADP Glo luminescence method was used for determination. It reflects the activity of ACLY enzyme by quantitatively detecting the amount of ADP, and the enzymatic reaction catalyzed by ACLY is proportional to the amount of ADP detected by the luminescent signal. Firstly, the compound is diluted with 10% DMSO, and then […] of compound dilution is added to a 5 μl reaction system, so that the final reaction system has a DMSO content of 2%. The enzymatic reaction catalyzed by ACLY was carried out at 37° C. for 30 minutes. 5 μl reaction mixture contained the following components: 40 mM Tris, pH 8.0, 10 mM MgCl2, 5 mM DTT, ATP, CoA, sodium citrate, and ACLY. After the enzymatic reaction was complete, 2.5 μl of ADP Glo reagent was added to each reaction system and incubated at room temperature for 1 hour. Afterwards, 5 μl of kinase detection reagent was added and incubated at room temperature for 30 minutes. The luminous signal was detected using Envision (PerkinElmer, USA).
Data processing: For compound, the activity dose dependent relationship was tested. IC50 value was obtained by non-linear fitting of sample concentration based on sample activity. The software used for calculation was Graphpad Prism 7, and the model used for fitting was sigmoid dose response (variable slope). For most inhibitor screening models, the bottom and top of the fitting curve were set to 0 and 100. In general, each sample is set with multiple wells (n≥2) during testing, which are represented in the results as Standard Deviation (SD) or Standard Error (SE).

A549 cells = assay: MTS cell proliferation assay, A549; type: cell-based; details: Homo sapiens, A549, 72 hours, 1% FBS, read-out: IC50, inhibition of proliferation, A549
Description: (§1) Experimental materials: NCI-H358 cells (H358, human non-small cell lung cancer cells) were purchased from the cell bank/stem cell bank of the Chinese Academy of Sciences; RPMI-1640 culture medium (GIBCO, product number 3180002), and human tumor cell non-small cell lung cancer cell A549 were gifted by the research group of researcher Li Jia from SHANGHAI INSTITUTE OF MATERIA MEDICA, CHINESE ACADEMY OF SCIENCES. CellTier 96® The Aquarius One Solution Cell Promotion Assay (MTS) was purchased from Promega #G3581.
Experimental principle: CellTier 96 ® AQueous One Solution Cell Proliferation Assay (MTS) colorimetric method was used to detect cell proliferation. […] The amount of formazan determined by absorbance at 490 nm is directly proportional to the number of live cells in culture. […]
Cell survival rate was detected by using MTS method, that is, adherent cells growing in logarithmic phase were digested with 0.025% trypsin, and counted; 80 μl cells were inoculated into a 96 well plate at a density of 3000 cells/well for A549 and 5000 cells/well for H358 (all cultured under 1% FBS conditions), and grown overnight in a 5% CO2 and 37° C. incubator. […]
The experimental results were fitted to the IC50 using Graphpad Prism 7. […] The results were expressed as Standard Deviation (SD) or Standard Error (SE).

NCI-H358 cells = assay: MTS cell proliferation assay, H358; type: cell-based, human; details: 1% FBS, read-out: IC50, inhibition of proliferation, H358
Description: as §1
(§2) Experimental principle: CellTier 96 ® AQueous One Solution Cell Proliferation Assay (MTS) colorimetric method was used to detect cell proliferation. This analysis method is based on the tetrazole compound (3-(4,5-dimethylthiazol-2-yl)-5-(3-carboxymethoxyphenyl)-2-(4-sulfophenyl)-2H-tetrazolium, internal salt; MTS). The conversion of yellow MTS to blue purple water-soluble formazan is catalyzed by dehydrogenase, which exists in living cells with metabolic activity; Dead cells cannot complete the transformation from MTS to formamide. The amount of formazan determined by absorbance at 490 nm is directly proportional to the number of live cells in culture.
(§3) Sample processing: Dissolve the sample in DMSO and store it at low temperature.
(§4) Cell survival rate was detected by using MTS method, that is, adherent cells growing in logarithmic phase were digested with 0.025% trypsin, and counted; 80 μl cells were inoculated into a 96 well plate at a density of 3000 cells/well for A549 and 5000 cells/well for H358 (all cultured under 1% FBS conditions), and grown overnight in a 5% CO2 and 37° C. incubator. Each compound was diluted with a three-fold concentration gradient, eight concentrations were tested, and three wells were set for each concentration. 20 μl of the diluted compounds was added to the corresponding cell wells. Adherent cells A549 and H358 were cultured in a 5% CO2 and 37° C. incubator for 72 hours; 20 μl of MTS was added separately and incubated for 2 hours in a 5% CO2 and 37° C. incubator. Molecular Device VersaMax was used to test the light absorption value at 490 nm (L1), with a reference wavelength of 690 nm (L2). The (L1−L2) values were plotted against different concentrations of inhibitors and IC50 was obtained by fitting the formula.
(§5) The experimental results were fitted to the IC50 using Graphpad Prism 7. The model used for fitting was log(inhibitor) vs Response—variable slop, and the results of each assay were equipped with triple replicate wells to ensure the accuracy of the experiment. The results were expressed as Standard Deviation (SD) or Standard Error (SE).

breast cancer cell MCF-7 = assay: MTS cell proliferation assay, MCF-7; type: cell-based; details: MCF-7, MTS, read-out: IC50, inhibition of proliferation, MCF-7
Description: as §2, §3, §4, §5
(§6) Similarly, the antiproliferative assays of the compounds on pancreatic cancer cell line ASPC-1, human pancreatic cancer cell MIA-PACA and breast cancer cell MCF-7 were performed as above.

[1] = test system: pancreatic cancer cell line ASPC-1; assay: MTS cell proliferation assay, ASPC-1; type: cell-based; details: ASPC-1, MTS, read-out: IC50, inhibition of proliferation, ASPC-1
Description: as §2, §3, §4, §5, §6

[2] = test system: human pancreatic cancer cell MIA-PACA; assay: MTS cell proliferation assay, MIA-PACA; type: cell-based
Description: as §2, §3, §4, §5, §6

[3] = Homo sapiens, NCI-H358, H358, 72 hours
[4] = Homo sapiens, MIA PaCa-2, read-out: IC50, inhibition of proliferation, MIA-PACA

Sequence of Human ACLY (P53396 whole entry): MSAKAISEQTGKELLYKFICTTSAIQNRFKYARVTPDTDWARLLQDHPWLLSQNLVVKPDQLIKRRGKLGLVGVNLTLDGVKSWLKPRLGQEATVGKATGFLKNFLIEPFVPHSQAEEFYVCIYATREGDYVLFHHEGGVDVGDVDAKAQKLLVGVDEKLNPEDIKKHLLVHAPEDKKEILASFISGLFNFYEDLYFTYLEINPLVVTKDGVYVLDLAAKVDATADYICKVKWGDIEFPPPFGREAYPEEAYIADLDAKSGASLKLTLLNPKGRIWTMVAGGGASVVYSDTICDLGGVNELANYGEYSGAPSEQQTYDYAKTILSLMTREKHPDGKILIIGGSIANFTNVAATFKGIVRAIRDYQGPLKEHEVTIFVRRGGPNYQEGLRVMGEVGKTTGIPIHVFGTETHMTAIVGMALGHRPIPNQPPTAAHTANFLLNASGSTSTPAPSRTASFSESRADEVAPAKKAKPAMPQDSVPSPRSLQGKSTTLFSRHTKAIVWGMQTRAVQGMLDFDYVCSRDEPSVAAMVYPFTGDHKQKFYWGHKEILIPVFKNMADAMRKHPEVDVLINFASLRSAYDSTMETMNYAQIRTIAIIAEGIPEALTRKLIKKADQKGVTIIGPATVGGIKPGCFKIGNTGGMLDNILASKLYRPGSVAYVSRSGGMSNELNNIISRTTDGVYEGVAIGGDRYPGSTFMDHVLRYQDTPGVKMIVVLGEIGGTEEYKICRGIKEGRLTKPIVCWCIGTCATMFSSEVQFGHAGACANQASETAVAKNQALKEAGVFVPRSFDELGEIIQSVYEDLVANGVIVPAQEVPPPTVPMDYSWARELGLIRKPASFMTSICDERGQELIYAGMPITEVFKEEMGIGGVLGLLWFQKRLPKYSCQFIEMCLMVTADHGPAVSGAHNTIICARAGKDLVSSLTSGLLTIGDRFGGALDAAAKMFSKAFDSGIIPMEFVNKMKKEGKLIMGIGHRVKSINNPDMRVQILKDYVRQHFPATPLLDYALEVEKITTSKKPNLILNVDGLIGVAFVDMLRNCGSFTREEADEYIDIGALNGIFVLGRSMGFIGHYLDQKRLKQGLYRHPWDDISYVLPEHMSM

Structure (SMILES)	IC50 (Human ACLY) [µM]	further results
CC(CCCCCCC=CCCCCCCC(C)(C(=O)O)c1ccccc1)(C(=O)O)c1ccccc1 (centres unmarked) [Compound M1]	1.7 ± 0.3	–
O=C(O)C1(CCCCCC/C=C\CCCCCCC2(C(=O)O)CC=CC2)CC=CC1 [Compound M2]	2.9 ± 0.95	–
O=C(O)C1(CCCCCC/C=C\CCCCCCCC2(C(=O)O)CC=CC2)CC=CC1 [Compound M3]	1 ± 0.13	–
O=C(O)C1(CCCCCC/C=C\CCCCCCC2(C(=O)O)CCCC2)CCCC1 [Compound M4]	22.6 ± 2.7	–
O=C(O)C1(CCCCCC/C=C\CCCCCCC2(C(=O)O)C=CCC2)C=CCC1 (centres unmarked) [Compound M5]	1.5 ± 0.45	IC50 (A549 cells): 12.5 ± 1.2 µM; IC50 (NCI-H358 cells; [3]): 23.6 ± 1.9 µM; IC50 (breast cancer cell MCF-7; Homo sapiens, MCF7): 31.8 ± 1.7 µM; IC50 ([1]; Homo sapiens, ASPC1): 27.3 ± 0.8 µM; IC50 [2, 4]: 13.5 ± 18 µM
O=C(O)C1(CCCCCC/C=C\CCCCCCC2(C(=O)O)CC=CCC2)CC=CCC1 (centres unmarked) [Compound M6]	5.3 ± 0.98	–
C=CC(C)(CCCCCC/C=C\CCCCCCC(C)(C=C)C(=O)O)C(=O)O (centres unmarked) [Compound M7]	4.1 ± 1.7	–
CC(CCCC/C=C\CCCCCC(C)(C(=O)O)c1ccccc1)(C(=O)O)c1ccccc1 (centres unmarked) [Compound M9]	11.2 ± 1.61	–
C=CC(C)(CCCCCC/C=C\CCCCCCCC(C)(C=C)C(=O)O)C(=O)O (centres unmarked) [Compound M10]	1.9 ± 0.2	–
CC(CCCCCC/C=C\CCCCCCCC(C)(C(=O)O)c1ccccc1)(C(=O)O)c1ccccc1 (centres unmarked) [Compound M11]	1.9 ± 0.31	–
O=C(O)C1(CCCCCC/C=C\CCCCCCCC2(C(=O)O)CC=CCC2)CC=CCC1 (centres unmarked) [Compound M12]	3.9 ± 0.2	–
O=C(O)C1(CCCCCC/C=C\CCCCCCCC2(C(=O)O)C=CCC2)C=CCC1 (centres unmarked) [Compound M13]	2.7 ± 0.8	–
O=C(O)C1(CCCCC/C=C\CCCCCCC2(C(=O)O)C=CCC2)C=CCC1 (centres unmarked) [Compound M14]	7 ± 0.16	–
CC(CCCC/C=C/CCCCCC(C)(C(=O)O)c1ccccc1)(C(=O)O)c1ccccc1 (centres unmarked) [Compound M15]	52.2 ± 0.27	–
O=C(O)C1(CCCCCCC=CCCCCCCC2(C(=O)OCCc3ccc(Cl)cc3Cl)C=CCC2)C=CCC1 (centres unmarked) [Compound M19]	3.1 ± 1.3	IC50 (NCI-H358 cells; H358, 72 hours): 3.5 ± 0.4 µM; IC50 (breast cancer cell MCF-7): 3.9 ± 0.5 µM; IC50 [1]: 2.7 ± 1 µM; IC50 ([2]; read-out: IC50, inhibition of proliferation, MIA-PACA): 1.9 ± 0.5 µM
CCOC(=O)C1(CCCCCC/C=C\CCCCCCC2(C(=O)O)C=CCC2)C=CCC1 (centres unmarked) [Compound M20]	3.5 ± 1.7	–

Structure (SMILES)	IC50 (Human ACLY) [µM]	further results
COC(=O)C1(CCCCCC/C=C\CCCCCCC2(C(=O)O)C=CCC2)C=CCC1 (centres unmarked) [Compound M21]	3.8 ± 0.83	–
O=C(O)C1(CCCCCC/C=C\CCCCCCC2(C(=O)OCCc3ccccc3F)C=CCC2)C=CCC1 (centres unmarked) [Compound M23]	3.3 ± 0.72	–
O=C(O)C1(CCCCCC/C=C\CCCCCCC2(C(=O)OCc3ccc(Cl)cc3Cl)C=CCC2)C=CCC1 (centres unmarked) [Compound M24]	5.5 ± 1.9	–
O=C(O)C1(CCCCCC/C=C\CCCCCCC2(C(=O)OCCc3ccc(F)cc3)C=CCC2)C=CCC1 (centres unmarked) [Compound M25]	4 ± 0.86	IC50 (NCI-H358 cells; [3]): 5.6 ± 0.5 µM; IC50 (breast cancer cell MCF-7; Homo sapiens, MCF7): 5.7 ± 1.5 µM; IC50 ([1]; Homo sapiens, ASPC1): 29.2 ± 11.4 µM; IC50 [2, 4]: 11.9 ± 2.7 µM
O=C(O)C1(CCCCCC/C=C\CCCCCCC2(C(=O)OCCc3ccccc3)C=CCC2)C=CCC1 (centres unmarked) [Compound M27]	7.7 ± 0.39	–
O=C(O)C1(CCCCCC/C=C\CCCCCCC2(C(=O)OCCCc3ccc(Cl)cc3Cl)C=CCC2)C=CCC1 (centres unmarked) [Compound M28]	17 ± 2.5	–
O=C(O)C1(CCCCCC/C=C\CCCCCCC2(C(=O)OCCc3ccc4ccccc4c3)C=CCC2)C=CCC1 (centres unmarked) [Compound M29]	5.8 ± 1.8	IC50 (NCI-H358 cells; [3]): 9 ± 1.9 µM; IC50 (breast cancer cell MCF-7; Homo sapiens, MCF7): 6.5 ± 0.4 µM; IC50 ([1]; Homo sapiens, ASPC1): 28 ± 10.1 µM; IC50 [2, 4]: 12.8 ± 1.6 µM
O=C(O)C1(CCCCCC/C=C\CCCCCCC2(C(=O)OCCc3ccc(Cl)cc3)C=CCC2)C=CCC1 (centres unmarked) [Compound M30]	19.9 ± 7.8	–
O=C(O)C1(CCCCCC/C=C\CCCCCCC2(C(=O)OCCc3ccccc3Cl)C=CCC2)C=CCC1 (centres unmarked) [Compound M31]	8.5 ± 3.2	–
COc1ccc(CCOC(=O)C2(CCCCCC/C=C\CCCCCCC3(C(=O)O)C=CCC3)C=CCC2)cc1 (centres unmarked) [Compound M32]	4.6 ± 1.3	–
CC[C@H](C)n1cc(C)c2c(C(=O)NCc3c(C)cc(C)[nH]c3=O)cc(-c3ccc(N4CCN(C(=O)CCCSC(=O)C(C)(C)CCCCC/C=C\CCCCCC(C)(C)C(=O)O)CC4)nc3)cc21 [Compound M33]	3.3 ± 0.45	–
Cc1ncsc1-c1ccc([C@H](C)NC(=O)[C@@H]2C[C@@H](O)CN2C(=O)[C@@H](NC(=O)C(C)(C)CCCCCC/C=C\CCCCCCC(C)(C)C(=O)O)C(C)(C)C)cc1 [Compound M34]	10.2 ± 0.3	–
O=C(O)C1(CCCCCCC(=C(CCCCCCC2(C(=O)O)C=CCC2)c2ccccc2)c2ccccc2)C=CCC1 (centres unmarked) [Compound M35]	0.9 ± 0.1	–
CC(C)(CCCCCCC=C(CCCCCCC(C)(C)C(=O)O)c1ccc(C(=O)N2CCN(c3ccccn3)CC2)cc1)C(=O)O [Compound M36]	4.57 ± 0.41	–
CC(C)(CCCCCC/C=C(/CCCCCCC(C)(C)C(=O)O)c1ccc(C(=O)N2CCN(c3ccccn3)CC2)cc1)C(=O)O [Compound M37]	5.21 ± 0.27	–
COC(=O)c1cc(Cl)c(O)c(S(=O)(=O)Nc2cc(-c3ccccc3)c(F)cc2F)c1 [NDI-091143, reference compound]	0.0021 ± 0.0004	IC50 (NCI-H358 cells; [3]): 50.2 ± 27.7 µM; IC50 (breast cancer cell MCF-7; Homo sapiens, MCF7): 84.8 ± 45.3 µM; IC50 ([1]; Homo sapiens, ASPC1): 83.3 ± 34.7 µM; IC50 [2, 4]: 40.9 ± 14.3 µM
